Measurements: patent US20070073039A1, “Peptides that inhibit viral infections” (priority 2005, published 2007)
Like-named read-outs stand apart in the source and are kept apart here.

Legend:
JFH-1 virus = assay: Interferon treatment of Huh-7.5.1 cells before JFH-1 infection; format: cell-based, Hepatitis C virus (JFH-1); conditions: 5, 50 and 500 IU/mL; Huh-7.5.1, MOI 0.3; 3 days
Experimental: The viral inoculum was removed 4 hours later and the cells were further cultured with interferon for 3 days. At that time cells were harvested, RNA was isolated and analyzed by real-time RT-PCR to determine the intracellular HCV RNA levels. Bars represent intracellular HCV RNA levels expressed as a % of the levels obtained in the control infections.
Interferon treatment. […] The inoculum was removed after 3 hours of incubation at 37° C., and fresh DMEM supplemented with the indicated doses of IFN was added to the cells. The efficiency of the infection was monitored 72 hours later by quantitative RT-PCR.

Huh-7.5.1 cells = assay: Toxicity on Huh-7.5.1 cells incubated with peptides
HCV [1] = assay: Median effective concentration (EC50) by intracellular HCV RNA RT-QPCR; format: cell-based, Hepatitis C virus (JFH-1); conditions: Huh-7.5.1 cells, MOI 0.1
Experimental: (§1) To determine the median effective concentration (EC50) of peptide #1, peptide stock solution (3.6 mM in DMSO) was serially 2-fold diluted in DMSO. An aliquot of peptide from each dilution was then diluted 1:100 in complete growth medium and mixed with equal volume of virus supernatant. The virus-peptide mixture was then used to infect Huh-7.5.1 cells (MOI=0.1). After adsorption for 4 hours at 37° C., the virus-peptide inoculum was removed. The cells were washed 2 times, overlaid with 120 μL fresh growth medium and incubated at 37° C. for 3 days. Cells were lysed and subjected to RNA analysis. The HCV RNA transcript level was measured by real time RT-QPCR and normalized to cellular GAPDH levels. The inhibition of HCV infection was calculated by comparing the intracellular HCV RNA transcript between the peptide treatment and solvent control.
as §1, with “(EC50) of the L- and D-form” for “(EC50)”, “serially diluted” for “serially”, “2-fold” for “2-fold diluted”

Dengue-2 [2] = assay: Dengue-2 infection of Vero cells, Intracellular FACS Assay; format: cell-based; conditions: 20 μM
Experimental: Intracellular FACS Assay: Vero cells were seeded for 24 h pre-infection in 6-well plates. Cells were exposed to Dengue-2 in the presence of increasing concentrations of peptide (or DMSO as control). Viruses and peptide were washed away 2 h post-infection. Cells were taken for intracellular staining 3 days post-infection. Cells were stained with appropriate isotype control, Dengue Env, Dengue capsid or tubulin antibodies. Cells were analyzed by FACS.

[3] = Preliminary in vivo toxicity in mice
Experimental: As a preliminary measurement of the in vivo cytotoxicity of the peptides 1, 2 and 3 (see Table 4) a group of three mice (BALB/c mice, 7 weeks old, about 23 g) were each injected with 92 μg L-type peptide 1 ( ˜4 mg/kg) in 200 μL PBS (spun 14,000 rpm for 3 minutes before injection). In the control group, each of three mice was given 200 μL PBS containing 5% DMSO. The mice were monitored for acute toxicity during the first 3 hours after injection.
No change in appearance, activity or behavior was observed. The mice were then weighed on days 0, 3, 5, 7 and 10. Peptide-injected mice gained weight at the same rate as the controls.

[4] = Serum stability of L- and D-type peptides (10% FBS, 37° C., antiviral readout); format: in vitro ADME; conditions: within 1 hour
Description: Peptides composed of L-amino acids are susceptible to proteolysis, which could shorten their half-life and, thus, their biological activity. To examine this possibility and to determine if specific peptide-viral protein interactions mediate antiviral activity, peptide 1 was synthesized using all D-amino acids, purified to >95% homogeneity, and its antiviral activity and serum stability were compared with a similarly pure preparation of the L-type version of peptide #1. Both L- and D-type peptides were diluted 1:100 in complete growth medium (10% FBS) and mixed with an equal volume of viral supernatant.
In addition, to compare the serum stability of the L- and D-type peptides, the diluted peptide was incubated at 37° C. for 1 hour, 2 hours and 4 hours before mixing with viral supernatant. The virus-peptide mixture was then used to infect Huh-7.5.1 cells (MOI=0.1). After adsorption for 4 hours at 37° C., the virus-peptide inoculum was removed. The cells were washed 2 times, overlaid with 120 μL fresh growth medium and incubated at 37° C. for 3 days. Cells were lysed and subjected to RNA analysis. The HCV RNA transcript level was measured by real time RT-QPCR and normalized to cellular GAPDH levels. […] Thus, in addition to low immunogenicity and possible oral bioavailability, peptides composed of D-amino acids have the potential therapeutic advantage of enhanced serum stability.

MTT cytotoxicity assay = format: cell-based; conditions: human, hepatocyte cell lines, read-out: LD50 (MTT cytotoxicity)
Experimental: Peptide cytotoxicity was measured by MTT cytotoxicity assay based on the protocol provided in the ATCC MTT assay kit (Cat #30-1010K). In brief, 5000-10,000 cells were seeded per well in a 96 well plate. Following overnight growth, 100 μL fresh medium plus 20 μL of 2-fold serially diluted peptide was added. Media without peptides was added to at least 3 wells as untreated controls. The cells were then incubated for 72 hours at 37° C., 5% CO2. After this incubation, 1/10 volume of MTT solution ([…] in PBS) was added to each well, and the cells were returned to the incubator. Two hours later, the medium was removed, 150 μL DMSO was added to dissolve the purple precipitate formazan, and the plate was shaken at 150 rpm for 10 minutes. Absorbance at 570 nm less background at 670 nm is a reliable measure of […]. Cytotoxicity (LD50) of individual peptides was defined as the peptide concentration that caused 50% cell death.

Dengue-2 [5] = assay: Dengue-2 Fluorescent Foci Assay; format: cell-based; conditions: FIG. 19; 20 μM
Experimental: Fluorescent Foci Assay: Vero cells were seeded for 24 h pre-infection in 96-well plates. Cells were exposed to Dengue-2 in the presence of increasing concentrations of peptide (or DMSO as control). Viruses and peptide were washed away 2 h post-infection. Supernatants were collected every 3 days post-infection and added to fresh Vero cells for fluorescent foci assay. Newly infected Vero cells were fixed with 4% formaldehyde after 3 days. Cells were then stained with Dengue Env antibodies followed by Alexa-fluor dye conjugated secondary antibodies. Foci were counted using a fluorescent microscope.
Fluorescent Foci Assay. Vero cells were seeded for 24 hours pre-infection in 96-well plates. Cells were exposed to Dengue-2 in the presence of increasing concentrations of peptide (or DMSO as control). Viruses and peptide were washed away 2 hours post-infection. Supernatants were collected every 3 days post-infection and added to fresh Vero cells for fluorescent foci assay. Newly infected Vero cells were fixed with 4% formaldehyde after 3 days. Cells were then stained with antibodies directed to the Dengue Envelop protein followed by Alexa-fluor dye conjugated secondary antibodies. Foci were counted using a fluorescent microscope.

HCV [6] = assay: Intracellular HCV RNA by real time RT-QPCR after infection of Huh-7.5.1 cells with and without peptide; format: cell-based, Hepatitis C virus (JFH-1); conditions: working concentration 18.4-27.5 μM per peptide
Experimental: To accurately quantify the inhibitory effect of the selected peptides on HCV infection, intracellular HCV RNA was measured after infection by real time RT-QPCR with and without peptide treatment. The peptide stock solution was diluted 1:100 and mixed with equal volume of viral supernatant (propagated from day 18 virus preparation post transfection) to a final concentration approximately 20 μM. The virus with peptide or 0.5% DMSO solvent control was then used to infect Huh-7.5.1 cells at a multiplicity of infection (MOI) of 0.1. After an adsorption for 4 hours at 37° C., the inoculum was removed. The cells were washed 2 times, overlaid with 120 μL fresh growth medium and incubated at 37° C. At the indicated time points, total cellular RNA was isolated by the guanidine thiocyanate method. The HCV RNA transcript level was measured by real time RT-QPCR with the primers 5′—
normalized to cellular GAPDH levels.
To define the antiviral action of peptide #1 (SEQ ID NO:43), the antiviral activity of a series of N-terminal and C-terminal truncations of peptide 1 was analyzed using the focus reduction assay and by measuring the reduction in intracellular HCV RNA as described.

HCV [7] = assay: HCV focus reduction assay; format: cell-based, Hepatitis C virus (JFH-1); conditions: 72 h; working concentration 18.4-27.5 μM per peptide; Mock 51
Procedure, shortened: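 Huh-7.5.1 cells infected with 50 ffu HCV premixed with peptide (~20 μM screen; derivatives at 18, 6 and 2 μM), 4 h adsorption at 37 °C, then washed and cultured 3 days. Foci immunostained for NS5A and counted by fluorescence microscopy. Values are % of mock with 0.5% DMSO solvent.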

Dengue-2 [8] = assay: Dengue-2 infection of Vero cells, Enzyme-linked Immunosorbent Assay; format: cell-based; conditions: for Inhibition of Dengue Infection, α-Capsid 9A7 / Inhibition of Dengue Infection, α-DEN ENV: Vero cells, 5 days
Experimental: Enzyme-linked Immunosorbent Assay. Vero cells (80,000 cells/well/ml) were seeded for 24 h pre-infection in 24-well plates. Cells were exposed to Dengue-2 (derived from Vero cells) in the presence of increasing concentration of peptide (or DMSO as control). Viruses and peptide were not removed (cells were not washed) throughout the incubation. Infection was analyzed after 5 days using ELISA that measured the amounts of Dengue-2 capsid released in the supernatant of infected Vero cells.

Dengue-2 [9] = assay: as above; format: cell-based; conditions: 1.25 μM, 5 days

IFNγ: human IFNγ (PBL Biomedical Lab, Piscataway, N.J.)
Inhibition of HCV infection by interferons (JFH-1 virus): efficiently inhibit HCV infection

CC[C@H](C)[C@H](NC(=O)[C@H](CC(=O)O)NC(=O)[C@H](CCCNC(=N)N)NC(=O)[C@H](CC(C)C)NC(=O)[C@H](Cc1c[nH]c2ccccc12)NC(=O)[C@@H](N)CO)C(=O)N[C@@H](Cc1c[nH]c2ccccc12)C(=O)N[C@@H](CC(=O)O)C(=O)N[C@@H](Cc1c[nH]c2ccccc12)C(=O)N[C@H](C(=O)N[C@@H](CS)C(=O)N[C@@H](CCC(=O)O)C(=O)N[C@H](C(=O)N[C@@H](CC(C)C)C(=O)N[C@@H](CO)C(=O)N[C@@H](CC(=O)O)C(=O)N[C@@H](Cc1ccccc1)C(=O)N[C@@H](CCCCN)C(=O)O)C(C)C)[C@@H](C)CC [Peptide 1]
Evidence of toxicity / cytotoxicity (Huh-7.5.1 cells): without evidence of cytotoxicity
EC50 (HCV [1]; FIG. 12B-C, 3 days, read-out: EC50 of the L- and D-forms of peptide 1): ~1000 nM
EC50 (HCV [1]; peptide with virus 4 hours, HCV RNA after 3 days, listed as peptide 1, read-out: EC50 against HCV infection): 300 nM
EC50 (HCV [1]; peptide with virus 4 hours, HCV RNA after 3 days, listed as peptide #1, read-out: EC50 against HCV infection): ~300 nM
EC50 (HCV [1]; peptide with virus 4 hours, HCV RNA after 3 days, read-out: EC50 against HCV infection): 289 nM
% of Dead cells PI (Dengue-2 [2]; propidium iodide staining, Vero cells 3 days post-infection): 1.88%
In vivo toxicity observation ([3]; 92 μg ( ˜4 mg/kg) in 200 μL PBS, acute toxicity first 3 hours, weight to day 10): Peptides 1, 2 and 3 are Nontoxic in C57BL/6 Mice
Weight(g) (d.0) ([3]; day 0, ˜4 mg/kg injected): 22.2 g
Weight(g) (d.3) ([3]; day 3): 22.3 g
Weight(g) (d.5) ([3]; day 5): 22.8 g
Weight(g) (d.7) ([3]; day 7): 23.1 g
Weight(g) (d.10) ([3]; day 10): 23.5 g
Antiviral activity lost on incubation in 10% FBS at 37° C. [4]: approximately 95%
CC50 at 72 h (MTT cytotoxicity assay; with FBS): 26700 nM
CC50 at 72 h (MTT cytotoxicity assay; without FBS): 3800 nM

LRDIWDWICEVLSDFK [^N-16mer]
Inhibition of Dengue viral infection by immunofluorescence assay (Dengue-2 [5]): about 90%
Fold Inhibition on HCV RNA (24 h) (HCV [6]; 24 h): 0.7 fold
Fold Inhibition on HCV RNA (72 h) (HCV [6]; 72 h): 0.6 fold
Focus Reduction (72 h) (HCV [7]): 125
Inhibition of Dengue viral infection as detected by FACS (Dengue-2 [2]; FIG. 18): about 80%
Inhibition of Dengue Infection, α-Capsid 9A7 (Dengue-2 [8]; 1.25 μM): 12.82%
Inhibition of Dengue Infection, α-Capsid 9A7 (Dengue-2 [8]; 5 μM): 16.01%
Inhibition of Dengue Infection, α-DEN ENV (Dengue-2 [8]; 5 μM): 33.64%
Inhibition of Dengue Infection, α-Capsid 9A7 (Dengue-2 [8]; 20 μM): 82.2%
Inhibition of Dengue Infection, α-DEN ENV (Dengue-2 [8]; 20 μM): 74.83%
Inhibition of Dengue viral infection as detected by ELISA (Dengue-2 [8]; FIG. 17, 20 μM): about 84%
Inhibition of Dengue Infection, α-DEN ENV (Dengue-2 [9]): 10.24%
